Assay results: patent publication US20090214669A1, “Combination anticancer therapy and pharmaceutical compositions therefore” (priority 2004, published 2009)
Like-named read-outs stand apart in the source and are kept apart here.

Columns and labels:
YAC-1 cells = test: NK activity of spleen cells, 4-hour 51Cr-release assay
Excerpt: (§1) Mice were sacrificed by cervical dislocation on day 14 after tumour inoculation.
(§2) In vitro-passaged YAC-1 cells (a Moloney-virus induced mouse T cells lymphoma of A/SN origin), and in vivo-passaged B16 melanoma cells, were used as target cells in a chromium-release assay. B16 melanoma cells were obtained from tumour-bearing mice, seeded in cell-culture flasks (Falcon, Becton Dickinson and Co., Plymouth, England) and used within the first week of culture in CM. B16 and YAC-1 cell lines were obtained from the laboratory collection, and were originally obtained from the American Tissue Culture Collection (ATCC).
(§3) The cytotoxic activity of the effector cells collected from individual mice was measured by a standard 4-hour ^51Cr-release assay. Briefly, target cells were harvested from the cultures, washed twice, resuspended at 5×10^6 cells in 0.9 ml of CM and labelled with 100 μCi (^51Cr) sodium chromate (New England Nuclear, Boston, Mass.) for 1 hour at 37° C. in a 5% CO2 incubator. […] The effector cells suspension was added to quadruplicate wells to give three E/T ratios (i.e. 100:1, 50:1, 25:1) in a final volume of 200 μl per well. The plates were then incubated for 4 hours at 37° C. in a 5% CO2 incubator, 100 μl of supernatants were collected from each well, and the radioactivity was measured using a gamma counter. Total mean cytotoxicity±S.E.M. were calculated from quadruplicate cpm values from individual spleens.
It has been therefore measured the cytotoxic activity of splenocytes against NK-sensitive (YAC-1) tumour cells.

B16 melanoma cells = test: Cytotoxic (CTL) activity of spleen cells against autologous tumour cells, 51Cr-release assay; details: for CTL % cytotoxicity: E/T ratio 25:1
Excerpt: as §1, §2, §3
It has been tested from spleen cells from normal and tumour-bearing mice for specific cytotoxic activity against autologous tumour cells using in-vivo passaged B16 melanoma cells as target.

PROb cells [1] = test: BDIX/PROb peritoneal carcinomatosis, cisplatin combined with OM-174, survival; assay type: in vivo, BDIX rats; details: cisplatin 3 mg/kg i.v. day 21; OM-174 1 mg/kg i.v., 5 injections every 5th day from day 28 or 35
Method: Colon cancer PROb cells were originally obtained from a tumor of a BDIX rat induced by 1,2-dimethylhydrazine.
The BDIX strain of rats was established in 1937 by H. Druckrey. Nowadays these rats come from Iffa-Credo (L'Asbresle, France).
BDIX rats, 4 months±1 month at the beginning of the experiment, 7 animals/group, received i.p. cultured syngenic PROb cells (i.p) on day 0. Cisplatin (3 mg/kg) was injected i.v. on day 21, and OM-174 treatment (1 mg/kg, 5 injections i.v. in the penile vein every 5th day) started either on days 28 or 35. Survival was followed until day 72 in the example presented here.
In this example, cisplatin (3 mg/kg i.v) is given on day 21. A further immunostimulating treatment with OM-174 is started only on day 28 or 35 (1 mg/kg, 5 injections i.v. every 5th day).

ProB cells [2] = details: cited from earlier work
EMT-6 cells [3] = test: Indirect radiosensitisation via OM-174-induced conditioned medium; assay type: cell-based, mouse; details: 3 μg/ml versus 0.3 μg/ml; conditioned medium from Whistar rats
[4] = system: spleen cells expressing CD4, CD8, and NK1.1; test: Flow cytometric analysis of spleen cell subsets; assay type: in vivo, C57BL/6 mice; details: for NK (%): NK1.1 positive cells vs total spleen cells; for NK (%) / CD4^+ (%) / CD8^+ (%): mean ± S.E.M; for CD4^+ (%) / CD8^+ (%): positive cells vs total spleen cells
Method: Splenocytes from individual mice were analysed by flow cytometry. The following monoclonal antibodies were used for double fluorescence analysis of spleen cell subsets: fluorescein (FITC)-conjugated anti-mouse NK1.1 PE (PharMingen, San Diego, Calif.), PE-conjugated anti-mouse CD4 (PharMingen), FITC-conjugated anti-mouse CD8 (PharMingen). Approximately 1×10^6 spleen cells were resuspended in […] of CM and staining was performed at 4° C. for 30 minutes. Cells were then washed twice in PBS containing 0.02% sodium azide and flow cytometric analysis was performed using a FACscan flow cytometer (Becton Dickinson).
Fluorescence data were collected using a 488 nm excitation wavelength from a 15 mW air-cooled argon-ion laser. […] A minimum of 5,000 events were collected on each sample and acquired in list mode by a Hewlett Packard 9000 computer. To exclude dead cells, debris, non lymphoid cells, and cell aggregates, data collection was gated on live spleen lymphocytes by forward and side angle scatter. Data are represented as the percentage of positive cells over the total number of cells counted.

PROb cells [5] = test: PROb i.p. rat colon cancer model, 5-FU combined with OM-174: carcinomatosis classes, ascites, survival; assay type: in vivo; details: day 61
Method: On day 0 (D0), 106 PROb cells were injected i.p. to each rat. 5-FU was administered i.p. at the dose of 30 mg/kg on days 7 and 14. OM-174 was injected at the dose of 1 mg/kg i.v. from day 21 three times a week for a total of 10 injections.
All rats (controls and treated) were sacrificed by CO2 on day 61. The efficacy of the treatment was determined by read-outs such as survival (FIG. 5) and measure of the classes of cancer given depending on the number and the size of the nodules, and also by ascites measurements. Carcinomatoses were evaluated blindly. As it is impossible to measure the volume of a carcinomatosis, they were classified according to the number and diameter of the nodules: • Class 0: no visible nodule • Class 1: some countable nodules with a diameter from 0.1 to 0.3 cm • Class 2: many uncountable nodules with a diameter from 0.1 to 0.3 cm • Class 3: some nodules with a diameter of 1 cm invade the peritoneal cavity • Class 4: the cavity is completely invaded by tumor masses of several cm.
The ascite volume was measured by double weights of the rats.

[6] = system: PROb subcutaneous colon tumors; assay type: in vivo, BDIX rats
[7] = Pharmacokinetic data of OM-174 in man; details: human, in vivo, median and range; for Vd: read-out: Vss
EMT-6 cells [8] = test: NO production (nitrite, Griess method) by EMT-6 cells exposed to OM-174; assay type: cell-based, mouse; details: 16 hours
Method: Murine mammary adenocarcinoma EMT-6 cells were cultured in RPMI medium+10% bovine calf serum in plastic flasks. EMT-6 monolayer cultures grown to early confluence were exposed to OM-174 for 16 hours in both conditions (21% and 1% oxygen). After treatment with OM-174, nitrite determination using the classical Griess method was performed. Values were normalized for 200'000 cells per well.

[9] = B16 tumour-bearing mice, day 14

CCCCCCCCCCCC(=O)O[C@H](CCCCCCCCCCC)CC(=O)N[C@@H]1C(O)[C@H](OP(=O)(O)O)C(CO)O[C@H]1OCC1O[C@H](OP(=O)(O)O)C(NC(=O)C[C@H](O)CCCCCCCCCCC)C(O)[C@@H]1O (some centres unmarked) [OM-174]
NK activity (in words) (YAC-1 cells; B16 melanoma-injected mice, day 14): dramatic increase
cytotoxicity at 1 mg/kg (YAC-1 cells; Mus musculus, YAC-1, ip, read-out: NK % cytotoxicity): 6.3 ± 1.7%
NK cell activity (in words) (YAC-1 cells; normal mice, vs untreated controls): dramatic increase
NK % cytotoxicity (YAC-1 cells; normal mice, E/T ratio 25:1, mean ± S.E., five mice): 10.39 ± 1.0 %
CTL % cytotoxicity (B16 melanoma cells; B16 tumour-bearing mice, day 14, CY 200 mg/Kg i.p. day 7, OM-174 1 mg/kg i.p. days 8 and 13, mean ± S.E.): 5.6 ± 0.9%
CTL % cytotoxicity (B16 melanoma cells; normal mice): <1%
Cytotoxic activity against autologous tumour cells (in words) (B16 melanoma cells; tumour-bearing mice): marked stimulation of CTL activity
Increase of CTL activity with respect to tumour controls (B16 melanoma cells; tumour-bearing mice): two-fold increase
Antitumour activity / survival (in words, FIG. 4) (PROb cells [1]): anticancer effect is lost
Therapeutic activity per se (in words) (ProB cells [2]; treatment started up to 14 days after tumour induction, WO 95/14026): strong therapeutic activity
Complete remissions (ProB cells [2]; treatment starts 14 days after the injection of the cancer cells, peritoneal carcinomatoses): 90%
Indirect radiosensibilizing effect via conditioned medium (in words, FIG. 8) (EMT-6 cells [3]): clearly more radiosensibilizing
NK (%) [4, 9]: 7.5 ± 0.5%
CD4^+ (%) [4, 9]: 27.0 ± 2.0%
CD8^+ (%) [4, 9]: 9.3 ± 1.8%
Percentages of CD4^+, CD8^+ and NK1.1 positive spleen cells (in words) ([4]; normal and tumour-bearing mice): increased the percentages
NK (%) ([4]; normal mice): 11.6 ± 2.1%
CD4^+ (%) ([4]; normal mice): 34.0 ± 2.5%
CD8^+ (%) ([4]; normal mice): 12.6 ± 1.5%
Number of rats in carcinomatosis class 0 (PROb cells [5]; Class 0: no visible nodule, 5-FU 30 mg/kg i.p. days 7 and 14, OM-174 1 mg/kg i.v. from day 21, 10 injections): 2
Number of rats in carcinomatosis class 1 (PROb cells [5]; Class 1: some countable nodules with a diameter from 0.1 to 0.3 cm): 3
Number of rats in carcinomatosis class 2 (PROb cells [5]; Class 2: many uncountable nodules with a diameter from 0.1 to 0.3 cm): 2
Number of rats in carcinomatosis class 3 (PROb cells [5]; Class 3: some nodules with a diameter of 1 cm invade the peritoneal cavity): 2
Number of rats in carcinomatosis class 4 (PROb cells [5]; Class 4: the cavity is completely invaded by tumor masses of several cm): 1
Carcinomatosis classes versus Control group (Mann-Whitney test) (PROb cells [5]): significant difference
Ascites (PROb cells [5]; measured by double weights of the rats): 1 mL
Number of cured animals/total number of animals ([6]; CY 25 mg/kg i.p. day 36, i.t. immunostimulant from day 43 (OM-174 200 μg x12, CpG 100 μg x12, BCG days 43 and 50)): 1/6
Antitumoral effect of single treatment on large, established PROb tumors (in words, FIG. 3) ([6]; agent alone, comparatively to untreated animals): no antitumoral effect
Effect of i.t. immunostimulant on the antitumor activity of CY (in words) ([6]; i.p. CY day 36 combined with i.t. immunostimulant from day 43): strongly enhanced
Complete and lasting tumor regression (animals) ([6]; i.p. CY day 36 followed by i.t. OM-174 from day 43): 4/6
clearance ([7]; intravenous, Cancer patients): 1.7 mL/min
half-life ([7]; intravenous, Cancer patients): 20 h
Vd ([7]; intravenous, Cancer patients): 2.9 L
clearance ([7]; Healthy volunteers): 2.82 mL/min
half-life ([7]; Healthy volunteers): 23 h
Vd ([7]; Healthy volunteers): 5.1 L
NO production (in words, FIG. 6) (EMT-6 cells [8]; hypoxic (1% oxygen) condition): increased production of NO
NO production (in words, FIG. 6) (EMT-6 cells [8]; normal oxygen levels (21% oxygen)): low amounts of NO
